Legend:
[1] = biological target: T1, STING (stimulator of interferon genes) (Homo sapiens, UniProt Q86WV6); experiment: SPR (Biacore T200); also MST (KD […]) and CA-sepharose pull-down competed by free CA; assay type: binding; parameters: gene STING1; purified soluble human STING protein (TP308418, OriGene)
[2] = biological target: T1, STING (stimulator of interferon genes); experiment: SPR (Biacore T200); also carnosol-sepharose pull-down; assay type: binding; parameters: gene STING1; purified human STING protein (TP308418, OriGene)

T1 sequence (Q86WV6 whole entry): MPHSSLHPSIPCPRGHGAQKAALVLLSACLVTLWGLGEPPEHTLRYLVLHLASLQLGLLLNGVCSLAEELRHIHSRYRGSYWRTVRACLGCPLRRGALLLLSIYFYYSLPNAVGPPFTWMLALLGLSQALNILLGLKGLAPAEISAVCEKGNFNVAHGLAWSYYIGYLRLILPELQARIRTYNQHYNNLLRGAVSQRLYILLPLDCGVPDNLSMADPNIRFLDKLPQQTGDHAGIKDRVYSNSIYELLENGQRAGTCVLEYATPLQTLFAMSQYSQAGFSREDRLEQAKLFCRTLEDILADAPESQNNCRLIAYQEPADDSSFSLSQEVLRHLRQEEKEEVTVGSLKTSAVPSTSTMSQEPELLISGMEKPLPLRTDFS

Row | SMILES | Kd [1] | Kd [2]
1 | CC(C)c1cc2c(c(O)c1O)[C@@]1(C(=O)O)CCCC(C)(C)[C@@H]1CC2 [CA, carnosic acid] | 3.17 µM | 
2 | CC(C)c1cc2c(c(O)c1O)[C@@]13CCCC(C)(C)[C@@H]1C[C@@H]2OC3=O [carnosol] |  | 1.07 µM

Source: publication PMC11984877, “Carnosic Acid Directly Targets STING C‐Terminal Tail to Improve STING‐Mediated Inflammatory Diseases” (Advanced Science, 2025)
